Test [1] has as its target Voltage-dependent N-type calcium channel subunit alpha-1B (Rattus norvegicus, UniProt Q02294). The experiment in a line: (§1) Inhibition of rat neuronal Cav2.2 channel.
For test [2], the target named is Voltage-dependent N-type calcium channel subunit alpha-1B (Rattus norvegicus) (UniProt Q02294). The description is as §1.

Structures are written as SMILES. The source made the active and inactive calls. The rule behind the calls is not given here.

These results are taken from ChEMBL document CHEMBL1152909, “Low molecular weight non-peptide mimics of omega-conotoxin GVIA” (Bioorg Med Chem Lett, 2009).

Chain of Voltage-dependent N-type calcium channel subunit alpha-1B (Rattus norvegicus) (Q02294 whole entry, looked up): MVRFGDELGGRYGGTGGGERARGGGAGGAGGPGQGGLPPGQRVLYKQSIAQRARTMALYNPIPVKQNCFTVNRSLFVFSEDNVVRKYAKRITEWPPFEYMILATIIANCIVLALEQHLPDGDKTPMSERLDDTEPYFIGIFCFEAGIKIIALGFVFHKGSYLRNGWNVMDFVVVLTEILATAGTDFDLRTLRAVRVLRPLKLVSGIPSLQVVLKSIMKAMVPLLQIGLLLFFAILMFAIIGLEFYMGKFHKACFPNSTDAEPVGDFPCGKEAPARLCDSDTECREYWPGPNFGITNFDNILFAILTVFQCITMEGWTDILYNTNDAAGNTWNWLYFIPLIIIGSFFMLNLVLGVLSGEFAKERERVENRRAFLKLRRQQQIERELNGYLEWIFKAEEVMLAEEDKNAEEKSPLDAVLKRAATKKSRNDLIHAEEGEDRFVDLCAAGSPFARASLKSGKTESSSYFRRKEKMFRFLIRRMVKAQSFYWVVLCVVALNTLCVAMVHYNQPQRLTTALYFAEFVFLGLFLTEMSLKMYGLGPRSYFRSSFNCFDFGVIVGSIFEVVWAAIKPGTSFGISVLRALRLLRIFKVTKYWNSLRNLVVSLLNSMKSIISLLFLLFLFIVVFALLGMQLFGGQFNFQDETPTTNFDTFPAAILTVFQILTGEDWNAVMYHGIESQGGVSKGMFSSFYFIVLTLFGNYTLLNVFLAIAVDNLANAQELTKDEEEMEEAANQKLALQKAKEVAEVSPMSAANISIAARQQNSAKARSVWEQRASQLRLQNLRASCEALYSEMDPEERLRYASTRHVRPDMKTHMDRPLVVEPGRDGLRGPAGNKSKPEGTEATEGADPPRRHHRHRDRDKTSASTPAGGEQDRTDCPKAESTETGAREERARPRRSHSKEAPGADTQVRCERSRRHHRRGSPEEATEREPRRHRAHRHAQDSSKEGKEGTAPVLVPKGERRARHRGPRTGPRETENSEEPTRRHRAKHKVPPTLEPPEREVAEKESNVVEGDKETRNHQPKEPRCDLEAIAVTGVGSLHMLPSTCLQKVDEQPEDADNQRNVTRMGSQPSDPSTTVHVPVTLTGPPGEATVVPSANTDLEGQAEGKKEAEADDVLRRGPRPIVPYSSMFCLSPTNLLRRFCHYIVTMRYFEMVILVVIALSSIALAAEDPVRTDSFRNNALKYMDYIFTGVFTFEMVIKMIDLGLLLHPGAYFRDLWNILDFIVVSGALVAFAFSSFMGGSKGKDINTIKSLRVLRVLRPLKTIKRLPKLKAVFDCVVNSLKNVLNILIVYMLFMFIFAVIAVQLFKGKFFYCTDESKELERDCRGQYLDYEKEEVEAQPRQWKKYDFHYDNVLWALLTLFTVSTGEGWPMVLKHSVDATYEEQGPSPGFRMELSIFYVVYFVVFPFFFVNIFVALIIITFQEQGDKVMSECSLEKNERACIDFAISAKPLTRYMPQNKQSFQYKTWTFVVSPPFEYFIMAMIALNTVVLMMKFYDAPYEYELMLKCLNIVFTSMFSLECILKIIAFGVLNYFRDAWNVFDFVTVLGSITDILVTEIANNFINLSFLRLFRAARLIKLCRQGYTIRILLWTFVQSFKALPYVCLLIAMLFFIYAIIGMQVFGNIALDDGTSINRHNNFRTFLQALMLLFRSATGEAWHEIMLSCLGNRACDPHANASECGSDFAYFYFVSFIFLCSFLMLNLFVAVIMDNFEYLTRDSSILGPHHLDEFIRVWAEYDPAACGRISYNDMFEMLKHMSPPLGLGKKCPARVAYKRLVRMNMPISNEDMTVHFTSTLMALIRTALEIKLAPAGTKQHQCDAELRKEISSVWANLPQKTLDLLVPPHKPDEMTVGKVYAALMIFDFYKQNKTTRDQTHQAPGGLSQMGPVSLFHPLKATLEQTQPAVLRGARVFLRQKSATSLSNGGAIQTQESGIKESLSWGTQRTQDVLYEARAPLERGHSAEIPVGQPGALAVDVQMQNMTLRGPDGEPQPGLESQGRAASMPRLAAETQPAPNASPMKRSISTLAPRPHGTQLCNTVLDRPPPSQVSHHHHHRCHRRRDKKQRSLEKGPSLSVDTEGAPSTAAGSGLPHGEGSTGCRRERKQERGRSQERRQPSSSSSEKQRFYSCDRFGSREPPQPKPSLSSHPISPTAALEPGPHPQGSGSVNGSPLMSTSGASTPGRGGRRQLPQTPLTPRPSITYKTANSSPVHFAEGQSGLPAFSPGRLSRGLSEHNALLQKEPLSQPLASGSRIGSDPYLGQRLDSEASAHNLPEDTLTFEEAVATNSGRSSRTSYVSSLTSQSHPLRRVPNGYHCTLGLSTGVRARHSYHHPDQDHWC
Chain of Voltage-dependent N-type calcium channel subunit alpha-1B (Q02294 whole entry): as the sequence (Q02294 whole entry, looked up) above

As to `NC(N)=NCCCOc1ccc(CNc2nc3ccc(Oc4ccccc4)cc3s2)cc1`, in test [1], the EC50 amounted to 5.8 µM. As for `NCCCOc1ccccc1C(=O)N(Cc1ccc(OCCCN=C(N)N)cc1)c1nc2ccc(Oc3ccc(O)cc3)cc2s1`, the EC50 in test [1] was found to be 1.78 µM. As for `NC(N)=NCCCOc1ccc(CNCC(c2ccccc2)c2ccccc2)cc1`, in test [1], the EC50 was 12 µM. Same read-out and setting: the same measure for `NCCCOc1ccc(CNc2ccc(Oc3ccccc3)cc2)cc1`: 34 µM. On to `[N-]=[N+]=NCCCOc1ccc(CNc2nc3ccc(Oc4ccccc4)cc3s2)cc1`, for which, in test [2], the outcome was inactive. On to `NC(N)=NCCCOc1ccc(CNc2ccc(Oc3ccccc3)cc2)cc1`, for which the EC50 in test [1] is 21 µM. Turning to `NCCCOc1ccccc1C(=O)Nc1nc2ccc(Oc3ccccc3)cc2s1`, in test [1], the EC50 is greater than 100 µM. For the molecule `NCCCOc1ccc(CNc2nc3ccc(Oc4ccccc4)cc3s2)cc1`, in test [1], the EC50 amounted to 76 µM. Regarding `Oc1ccc(CNc2nc3ccc(Oc4ccccc4)cc3s2)cc1`, in test [2], the outcome was inactive.

On to `NC(N)=NCCCOc1ccc(CNC(c2ccccc2)c2ccccc2)cc1`, for which the EC50 in test [1] was determined as 23 µM. On the same count and under the same terms, the same measure for `NCCCOc1ccc(CNCC(c2ccccc2)c2ccccc2)cc1`: greater than 100 µM; for `NCCCOc1ccccc1C(=O)N(Cc1ccc(OCCCN=C(N)N)cc1)c1nc2ccc(Oc3ccccc3)cc2s1`: 3.08 µM.

As to `ClCCCOc1ccc(CNc2nc3ccc(Oc4ccccc4)cc3s2)cc1`, in test [2], the result was inactive. Turning to `NCCCOc1ccc(CNC(c2ccccc2)c2ccccc2)cc1`, in test [1], the 50% effective concentration (EC50) was greater than 100 µM.

Take `CC(C)(C)OC(=O)NCCCOc1ccc(CNc2nc3ccc(Oc4ccccc4)cc3s2)cc1`: the outcome in test [2] was inactive.

As to `NCCCOc1ccc(CN(C(=O)c2ccccc2OCCCN)c2nc3ccc(Oc4ccc(O)cc4)cc3s2)cc1`, the concentration giving a half-maximal response (EC50) in test [1] is 3.18 µM. Same read-out and setting: for `NC(N)=NCCCOc1ccccc1C(=O)Nc1nc2ccc(Oc3ccccc3)cc2s1` the value was 33 µM.

Usually EC50 stands for the concentration that produces a half-maximal response.
